Assays:
Hepatitis C virus = assay: Inhibition of HCV 1a replication by cell based assay; assay type: functional, organism-based, Hepacivirus hominis
[1] = Inhibition of HCV 1a RNA dependent RNA polymerase; design: species or system Hepacivirus hominis

EC50 (Hepatitis C virus)	IC50 [1]	SMILES
49 nM	17 nM	CCC1(CCC(C)C)C(=O)C(C2=NS(=O)(=O)c3cc(NS(C)(=O)=O)ccc3N2)=C(O)c2ccccc21 (stereo not given)
	20 nM	CCCC1(C)C(=O)C(C2=NS(=O)(=O)c3cc(NS(C)(=O)=O)ccc3N2)=C(O)c2ccccc21 (stereo not given)
38 nM	7 nM	CC(C)CCC1(C)C(=O)C(C2=NS(=O)(=O)c3cc(NS(C)(=O)=O)ccc3N2)=C(O)c2ccccc21 (stereo not given)

Further lines, the compound ahead of its results:

SMILES	EC50 (Hepatitis C virus)	IC50 [1]
CCCC1(CCC)C(=O)C(C2=NS(=O)(=O)c3cc(NS(C)(=O)=O)ccc3N2)=C(O)c2ccccc21	603 nM	99 nM
CC(C)(C)CCCCC1(C)C(=O)C(C2=NS(=O)(=O)c3cc(NS(C)(=O)=O)ccc3N2)=C(O)c2ccccc21 (stereo not given)		138 nM
CC(C)(C)CCC1(C)C(=O)C(C2=NS(=O)(=O)c3cc(NS(C)(=O)=O)ccc3N2)=C(O)c2ccccc21 (stereo not given)	8 nM	10 nM
CC1(CCCC2CCCCC2)C(=O)C(C2=NS(=O)(=O)c3cc(NS(C)(=O)=O)ccc3N2)=C(O)c2ccccc21 (stereo not given)		791 nM
CCCCC1(C)C(=O)C(C2=NS(=O)(=O)c3cc(NS(C)(=O)=O)ccc3N2)=C(O)c2ccccc21 (stereo not given)	52 nM	15 nM
CC1(CC2CCCCC2)C(=O)C(C2=NS(=O)(=O)c3cc(NS(C)(=O)=O)ccc3N2)=C(O)c2ccccc21 (stereo not given)	121 nM	13 nM
